The target of one experiment is T1, 5-Lipoxygenase enzyme (Rattus norvegicus, UniProt P12527).
T1 construct: 5-Lipoxygenase enzyme was prepared as a 10,000g supernatant from RBL-1 cells; endogenous in cells; host or cells: RBL-1 cells (10,000g supernatant)
T1 sequence (P12527 1-673): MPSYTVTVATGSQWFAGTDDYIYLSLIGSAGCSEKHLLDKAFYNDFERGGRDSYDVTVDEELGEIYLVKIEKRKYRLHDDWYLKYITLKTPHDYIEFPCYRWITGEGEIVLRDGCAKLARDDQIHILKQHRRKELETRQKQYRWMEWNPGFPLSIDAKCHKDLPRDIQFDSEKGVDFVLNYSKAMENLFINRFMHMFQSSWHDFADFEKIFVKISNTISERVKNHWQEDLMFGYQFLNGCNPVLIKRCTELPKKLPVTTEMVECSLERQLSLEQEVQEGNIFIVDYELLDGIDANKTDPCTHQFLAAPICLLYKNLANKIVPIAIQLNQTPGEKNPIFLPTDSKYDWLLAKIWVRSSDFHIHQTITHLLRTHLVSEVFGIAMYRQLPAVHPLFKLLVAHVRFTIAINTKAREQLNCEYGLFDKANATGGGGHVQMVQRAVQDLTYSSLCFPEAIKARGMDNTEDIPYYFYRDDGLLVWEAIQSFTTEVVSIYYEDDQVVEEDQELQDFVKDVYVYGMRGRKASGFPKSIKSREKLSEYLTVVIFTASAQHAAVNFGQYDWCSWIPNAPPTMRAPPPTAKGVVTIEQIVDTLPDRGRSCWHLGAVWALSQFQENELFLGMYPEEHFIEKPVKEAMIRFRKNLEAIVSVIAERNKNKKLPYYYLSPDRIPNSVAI
The experiment in a line: RBL-1 5-lipoxygenase screen. Format: biochemical. The conditions noted are these: 10,000g supernatant from RBL-1 cells; for inhibition at 50 µM: 50µM compound (cells marked *, footnote: inhibition at 50µM); for inhibition at 20 µM: 20µM compound, decrease in formation of 5-HETE and 5,12-diHETE relative to control. On the procedure:
1) RBL-1 5-LIPOXYGENASE SCREEN
5-Lipoxygenase enzyme was prepared as a 10,000g supernatant from RBL-1 cells by the method of Jakschik (Jakschik, B.A., F.F. Sun, L.M.Lee, and M.M. Steinhoff, 1980, Biochem. Biophys. Res.Comm. 95, 103). The 10,000g supernatant was diluted with homogenization buffer to the equivalent of 1.5 - 2.5 x 10^7 cells. ml.-l and made 2mM with respect to CaCl2. Aliquots of 0.5ml were then dispensed into tubes, and incubated at 29 °C with 5pl ethanol or compound in ethanol at the desired concentration for 2min. Then [1-^14C] arachidonic acid was added in buffer to give a final concentration of 6.3µM and 0.2pCi per incubation, and the reaction continued at 29 °C for 2min. The reaction was terminated by adding lml of acetone and cooling on ice, 0.5ml of ice-cold saline and 100pl of 2M formic acid were added, and the mixture was extracted with 2 x 2ml of chloroform. The extract was stored under N2 at -20 °C until analysis by chromatography. Activity was measured as the percentage of total radioactivity found in 5-HETE and 5,12-diHETE, and inhibition calculated as the decrease in formation of the sum of these two species in compound-treated incubates relative to control incubations.

The target of another experiment is T2, cyclo-oxygenase (Bos taurus, UniProt O62664).
T2 construct: comprising 0.96mg lyophilised bovine seminal vesicle microsomes; from tissue; host or cells: bovine seminal vesicle microsomes (lyophilised)
T2 sequence (O62664 25-600): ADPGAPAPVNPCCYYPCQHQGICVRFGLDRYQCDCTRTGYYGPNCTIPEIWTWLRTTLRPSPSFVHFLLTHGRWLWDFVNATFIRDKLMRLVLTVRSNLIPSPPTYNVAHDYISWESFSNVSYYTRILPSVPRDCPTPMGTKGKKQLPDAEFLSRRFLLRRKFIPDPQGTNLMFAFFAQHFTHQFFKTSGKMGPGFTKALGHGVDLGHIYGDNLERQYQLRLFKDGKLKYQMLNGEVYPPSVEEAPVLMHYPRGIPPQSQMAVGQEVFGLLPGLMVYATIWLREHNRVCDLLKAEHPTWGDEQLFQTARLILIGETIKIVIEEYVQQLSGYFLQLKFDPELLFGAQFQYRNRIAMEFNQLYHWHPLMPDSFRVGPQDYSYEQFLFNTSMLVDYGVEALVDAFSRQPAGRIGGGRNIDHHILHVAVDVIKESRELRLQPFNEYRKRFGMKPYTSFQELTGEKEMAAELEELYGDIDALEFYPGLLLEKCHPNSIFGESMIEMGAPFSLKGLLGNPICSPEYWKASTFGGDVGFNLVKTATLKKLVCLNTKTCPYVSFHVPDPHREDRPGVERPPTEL
Briefly: Cyclo-oxygenase screen. The class given is biochemical. The conditions noted are these: 50µM compound; bovine seminal vesicle microsomes; decrease in prostaglandin formation. The method, then:
2) Cyclo-oxygenase Screen
Compounds were preincubated with the incubation constitutents for 5 min at 37 °C before the reaction was started by the addition of the arachidonic acid. The reaction was continued at 37 °C for 2 min, then stopped by placing the incubations on ice and the addition of 1.2ml 0.2M citric acid. Unmetabolised substrate and prostaglandin products were extracted in ethyl acetate (2 x 4ml), the combined extracts washed with 0.8ml water, and separated by thin-layer chromatography (Kieselgel GF254 plates in ethyl acetate:acetone:glacial acetic acid, 90:10:1, v/v). Recovery was 65-80%. The regions on the thin-layer chromatography plate that chromatographed with authentic arachidonic acid or prostaglandins E2 and F2a (Rf's 0.70, 0.28 and 0.16 respectively) were scraped and the radioactivity in each determined by liquid scintillation counting with a correction for quenching being made by the external standard-channels ratio method. Inhibition of cyclo-oxygenase activity was calculated from the decrease in prostaglandin formation. Each compound concentration was tested in triplicate and the 50% inhibitory concentration, if determined, was calculated by linear regression from the inhibitory data at, at least three different compound concentrations.

As to `CCCCCCCCCCCC#Cc1ccccc1C=C(C(=O)O)C(=O)OCC` [Example 24], the inhibition (commonly how much of the control response was suppressed) at 50 µM against 5-Lipoxygenase enzyme stood at 60%; on cyclo-oxygenase, 70%.

Compound `CCCCCCCCCCC/C=C\c1cccc(CC(C(=O)O)C(=O)O)c1` [Example 66] showed an inhibition at 20 µM against 5-Lipoxygenase enzyme of 84%.

Turning to `CCCCCCCCCCCC#Cc1cccc(C=C(C(=O)O)C(=O)O)c1` [Example 51], at 20 µM the inhibition on 5-Lipoxygenase enzyme was 25%.

Take `CCCCCCC#Cc1ccc(C=C(C(=O)O)C(=O)O)cc1` [Example 50]: the inhibition at 20 µM against 5-Lipoxygenase enzyme is 16%.

The compound `CCCCCCCCCCCC#Cc1cccc(CC(C(=O)O)C(=O)O)c1` [Example 52] displayed an inhibition at 20 µM at 5-Lipoxygenase enzyme of 51%.

As for `CCCCCC/C=C\c1cccc(OCCCC(C(=O)O)C(=O)OCC)c1` (centres unmarked) [Example 68], 20 µM produced 62.5% inhibition against 5-Lipoxygenase enzyme. At cyclo-oxygenase, this compound yielded an inhibition at 50 µM of 40%.

In the case of `CCCCCCCCCCCC#Cc1ccccc1C=C(C(=O)O)C(=O)O` [Example 25], the inhibition at 50 µM is 55% at 5-Lipoxygenase enzyme and 59% against cyclo-oxygenase.

The compound `CCCCCCC#Cc1ccc(C=C(C(=O)O)C(=O)OC)cc1` [Example 49] came in with an inhibition at 20 µM on 5-Lipoxygenase enzyme of 15%.

As for `CCCCCCC#Cc1cccc(OCCCC(C(=O)O)C(=O)O)c1` [Example 58], the inhibition at 50 µM on 5-Lipoxygenase enzyme was 45%; at cyclo-oxygenase, 38%.

Take `CCCCCCC#Cc1cccc(OCCCC(C(=O)O)C(=O)OCC)c1` (centres unmarked) [Example 56]: the inhibition at 50 µM against 5-Lipoxygenase enzyme was determined as 52%.

`CCCCCCCCCCCC#Cc1ccccc1CC(C(=O)O)C(=O)O` [Example 28] registered an inhibition at 20 µM against 5-Lipoxygenase enzyme of 63%. In addition, the inhibition at 50 µM at cyclo-oxygenase was 76%.

As to `CCCCCCC#Cc1ccccc1OCCCC(C(=O)O)C(=O)OCC` (centres unmarked) [Example 55], testing at 20 µM against 5-Lipoxygenase enzyme gave an inhibition of 63%.

Compound `CCCCCCCCCCC/C=C\c1cccc(C=C(C(=O)O)C(=O)O)c1` [Example 63] displayed an inhibition at 20 µM against 5-Lipoxygenase enzyme of 82%.

`CCCCCC/C=C\c1ccc(C=C(C(=O)O)C(=O)O)cc1` [Example 64] registered an inhibition at 20 µM at 5-Lipoxygenase enzyme of 49%.

With `CCCCCCCCCCCC#Cc1ccc(C=C(C(=O)O)C(=O)O)cc1` [Example 27], the inhibition at 50 µM against cyclo-oxygenase was determined as 59%.

Compound `CCCCCCCCCCC/C=C\c1ccccc1C=C(C(=O)O)C(=O)O` [Example 29] showed an inhibition at 20 µM against 5-Lipoxygenase enzyme of 67%.

The compound `CCCCCC/C=C\c1cccc(OCCCC(C(=O)O)C(=O)O)c1` [Example 69] displayed an inhibition at 20 µM at 5-Lipoxygenase enzyme of 44%.

In turn, `CCCCCCC#Cc1ccccc1OCCCC(C(=O)O)C(=O)O` [Example 57] registered an inhibition at 20 µM at 5-Lipoxygenase enzyme of 54%.
